Measured values: ChEMBL document CHEMBL1150976, “The selectivity of protein kinase inhibitors: a further update” (Biochem J, 2007)

Columns and labels:
[1] = biological target: Mitogen-activated protein kinase 1 (Homo sapiens) (UniProt P28482); experiment: Percentage ERK2 activity remaining in the presence of 25uM inhibitor
[2] = biological target: T1, Mitogen-activated protein kinase 15 (Homo sapiens) (UniProt Q8TD08); experiment: Percentage ERK8 activity remaining in the presence of 25uM inhibitor
T1 sequence (whole entry): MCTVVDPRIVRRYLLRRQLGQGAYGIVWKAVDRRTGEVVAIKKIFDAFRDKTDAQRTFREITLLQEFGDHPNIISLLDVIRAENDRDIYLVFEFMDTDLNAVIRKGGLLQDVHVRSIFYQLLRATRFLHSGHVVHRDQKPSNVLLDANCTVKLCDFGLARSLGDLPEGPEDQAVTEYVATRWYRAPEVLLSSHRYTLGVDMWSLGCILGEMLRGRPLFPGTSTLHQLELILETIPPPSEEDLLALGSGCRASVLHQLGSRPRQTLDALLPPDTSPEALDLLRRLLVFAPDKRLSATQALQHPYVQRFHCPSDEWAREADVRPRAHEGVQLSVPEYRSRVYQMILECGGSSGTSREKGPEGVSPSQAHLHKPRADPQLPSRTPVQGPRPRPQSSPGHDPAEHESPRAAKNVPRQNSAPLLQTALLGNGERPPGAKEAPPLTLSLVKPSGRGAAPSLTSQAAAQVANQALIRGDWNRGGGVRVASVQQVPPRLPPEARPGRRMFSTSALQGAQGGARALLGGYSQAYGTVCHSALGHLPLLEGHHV

[3] = biological target: Homeodomain-interacting protein kinase 3 (Homo sapiens) (UniProt Q9H422); experiment: Percentage HIPK3 activity remaining in the presence of 25uM inhibitor
[4] = biological target: Serine/threonine-protein kinase pim-2 (Homo sapiens, UniProt Q9P1W9); experiment: Percentage PIM2 activity remaining in the presence of 25uM inhibitor
[5] = biological target: Proto-oncogene tyrosine-protein kinase LCK (Mus musculus) (UniProt P06240); experiment: Percentage Lck activity remaining in the presence of 25uM inhibitor
[6] = biological target: Calcium/calmodulin-dependent protein kinase kinase 1 (Homo sapiens) (UniProt Q8N5S9); experiment: Percentage CaMKKalpha activity remaining in the presence of 25uM inhibitor
[7] = biological target: Myosin light chain kinase, smooth muscle (Homo sapiens, UniProt Q15746); experiment: Percentage SmMLCK activity remaining in the presence of 25uM inhibitor
[8] = biological target: Homeodomain-interacting protein kinase 3 (Homo sapiens) (UniProt Q9H422); experiment: Percentage HIPK3 activity remaining in the presence of 0.01uM inhibitor
[9] = biological target: Dual specificity mitogen-activated protein kinase kinase 1 (Homo sapiens) (UniProt Q02750); experiment: Percentage MKK1 activity remaining in the presence of 0.01uM inhibitor
[10] = biological target: Ribosomal protein S6 kinase beta-1 (Homo sapiens, UniProt P23443); experiment: Percentage S6K1 activity remaining in the presence of 0.01uM inhibitor
[11] = biological target: Rho-associated protein kinase 2 (Homo sapiens) (UniProt O75116); experiment: Percentage ROCK2 activity remaining in the presence of 0.01uM inhibitor
[12] = biological target: Mitogen-activated protein kinase 11 (Homo sapiens) (UniProt Q15759); experiment: Percentage p38beta activity remaining in the presence of 0.01uM inhibitor
[13] = biological target: T2, MAP kinase-activated protein kinase 5 (Homo sapiens) (UniProt Q8IW41); experiment: Percentage PRAK activity remaining in the presence of 0.01uM inhibitor
T2 sequence (whole entry): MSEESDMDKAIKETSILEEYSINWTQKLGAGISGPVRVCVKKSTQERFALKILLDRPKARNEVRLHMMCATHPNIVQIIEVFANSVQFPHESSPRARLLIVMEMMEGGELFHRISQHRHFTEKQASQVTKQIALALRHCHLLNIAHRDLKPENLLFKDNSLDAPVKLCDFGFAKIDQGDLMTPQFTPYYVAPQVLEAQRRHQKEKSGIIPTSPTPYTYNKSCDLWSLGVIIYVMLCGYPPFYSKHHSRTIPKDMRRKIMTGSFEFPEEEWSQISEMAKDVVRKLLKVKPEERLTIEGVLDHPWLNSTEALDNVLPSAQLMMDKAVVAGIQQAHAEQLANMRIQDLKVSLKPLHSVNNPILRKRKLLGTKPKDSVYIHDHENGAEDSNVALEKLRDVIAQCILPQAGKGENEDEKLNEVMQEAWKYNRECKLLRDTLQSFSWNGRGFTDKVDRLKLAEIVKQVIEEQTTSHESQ

[14] = biological target: T1, Mitogen-activated protein kinase 15 (Homo sapiens); experiment: Percentage ERK8 activity remaining in the presence of 0.01uM inhibitor
[15] = biological target: T3, Aurora kinase C (Homo sapiens) (UniProt Q9UQB9); experiment: Percentage Aurora C activity remaining in the presence of 0.01uM inhibitor
T3 sequence (whole entry): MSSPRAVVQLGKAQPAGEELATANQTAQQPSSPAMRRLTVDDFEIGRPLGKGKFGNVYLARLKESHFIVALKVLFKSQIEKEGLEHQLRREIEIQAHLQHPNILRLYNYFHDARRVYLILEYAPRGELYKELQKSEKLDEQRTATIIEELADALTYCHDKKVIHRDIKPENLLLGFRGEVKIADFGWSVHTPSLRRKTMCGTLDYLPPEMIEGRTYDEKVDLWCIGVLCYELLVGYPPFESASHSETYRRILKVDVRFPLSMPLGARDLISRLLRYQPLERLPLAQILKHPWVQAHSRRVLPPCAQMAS

[16] = biological target: Dual specificity tyrosine-phosphorylation-regulated kinase 1A (Homo sapiens) (UniProt Q13627); experiment: Percentage DYRK1A activity remaining in the presence of 0.01uM inhibitor
[17] = biological target: Casein kinase II (Homo sapiens) (UniProt P67870+P68400+P19784); experiment: Percentage CK2 activity remaining in the presence of 0.01uM inhibitor; type: protein-complex assay
[18] = biological target: T4, Serine/threonine-protein kinase 3 (Homo sapiens) (UniProt Q13188); experiment: Percentage MST2 activity remaining in the presence of 0.01uM inhibitor
T4 sequence (whole entry): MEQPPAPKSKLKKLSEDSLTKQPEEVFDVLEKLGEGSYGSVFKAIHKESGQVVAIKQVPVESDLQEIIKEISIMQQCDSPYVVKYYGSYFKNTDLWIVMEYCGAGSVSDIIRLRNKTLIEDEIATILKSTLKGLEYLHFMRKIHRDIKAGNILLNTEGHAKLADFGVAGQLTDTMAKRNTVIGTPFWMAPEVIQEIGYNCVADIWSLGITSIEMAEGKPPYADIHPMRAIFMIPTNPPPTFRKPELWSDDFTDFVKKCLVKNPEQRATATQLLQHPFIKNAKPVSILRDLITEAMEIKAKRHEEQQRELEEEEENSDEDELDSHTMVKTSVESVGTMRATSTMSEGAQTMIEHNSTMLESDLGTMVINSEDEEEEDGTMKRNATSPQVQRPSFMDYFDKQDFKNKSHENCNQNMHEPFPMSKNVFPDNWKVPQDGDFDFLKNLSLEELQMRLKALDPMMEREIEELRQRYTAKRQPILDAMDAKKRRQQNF

[19] = biological target: Serine/threonine-protein kinase N2 (Homo sapiens) (UniProt Q16513); experiment: Percentage PRK2 activity remaining in the presence of 0.01uM inhibitor
[20] = biological target: Tyrosine-protein kinase CSK (Homo sapiens, UniProt P41240); experiment: Percentage CSK activity remaining in the presence of 0.01uM inhibitor
Chain of Tyrosine-protein kinase CSK (P41240 2-450 limits assumed): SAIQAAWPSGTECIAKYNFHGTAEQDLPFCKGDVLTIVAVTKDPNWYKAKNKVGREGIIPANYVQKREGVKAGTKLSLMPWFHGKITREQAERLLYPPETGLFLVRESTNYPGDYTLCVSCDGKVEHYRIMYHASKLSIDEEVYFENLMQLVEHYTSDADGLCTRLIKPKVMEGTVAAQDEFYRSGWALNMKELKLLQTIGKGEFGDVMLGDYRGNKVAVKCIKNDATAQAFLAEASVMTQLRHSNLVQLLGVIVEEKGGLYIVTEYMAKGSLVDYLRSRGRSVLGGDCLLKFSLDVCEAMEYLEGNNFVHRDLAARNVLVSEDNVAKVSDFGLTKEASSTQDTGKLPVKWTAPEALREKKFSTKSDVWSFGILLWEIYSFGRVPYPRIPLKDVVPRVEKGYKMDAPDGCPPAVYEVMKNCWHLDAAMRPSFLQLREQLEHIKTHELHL

Chain of Rho-associated protein kinase 2 (Homo sapiens) (O75116 whole entry, looked up): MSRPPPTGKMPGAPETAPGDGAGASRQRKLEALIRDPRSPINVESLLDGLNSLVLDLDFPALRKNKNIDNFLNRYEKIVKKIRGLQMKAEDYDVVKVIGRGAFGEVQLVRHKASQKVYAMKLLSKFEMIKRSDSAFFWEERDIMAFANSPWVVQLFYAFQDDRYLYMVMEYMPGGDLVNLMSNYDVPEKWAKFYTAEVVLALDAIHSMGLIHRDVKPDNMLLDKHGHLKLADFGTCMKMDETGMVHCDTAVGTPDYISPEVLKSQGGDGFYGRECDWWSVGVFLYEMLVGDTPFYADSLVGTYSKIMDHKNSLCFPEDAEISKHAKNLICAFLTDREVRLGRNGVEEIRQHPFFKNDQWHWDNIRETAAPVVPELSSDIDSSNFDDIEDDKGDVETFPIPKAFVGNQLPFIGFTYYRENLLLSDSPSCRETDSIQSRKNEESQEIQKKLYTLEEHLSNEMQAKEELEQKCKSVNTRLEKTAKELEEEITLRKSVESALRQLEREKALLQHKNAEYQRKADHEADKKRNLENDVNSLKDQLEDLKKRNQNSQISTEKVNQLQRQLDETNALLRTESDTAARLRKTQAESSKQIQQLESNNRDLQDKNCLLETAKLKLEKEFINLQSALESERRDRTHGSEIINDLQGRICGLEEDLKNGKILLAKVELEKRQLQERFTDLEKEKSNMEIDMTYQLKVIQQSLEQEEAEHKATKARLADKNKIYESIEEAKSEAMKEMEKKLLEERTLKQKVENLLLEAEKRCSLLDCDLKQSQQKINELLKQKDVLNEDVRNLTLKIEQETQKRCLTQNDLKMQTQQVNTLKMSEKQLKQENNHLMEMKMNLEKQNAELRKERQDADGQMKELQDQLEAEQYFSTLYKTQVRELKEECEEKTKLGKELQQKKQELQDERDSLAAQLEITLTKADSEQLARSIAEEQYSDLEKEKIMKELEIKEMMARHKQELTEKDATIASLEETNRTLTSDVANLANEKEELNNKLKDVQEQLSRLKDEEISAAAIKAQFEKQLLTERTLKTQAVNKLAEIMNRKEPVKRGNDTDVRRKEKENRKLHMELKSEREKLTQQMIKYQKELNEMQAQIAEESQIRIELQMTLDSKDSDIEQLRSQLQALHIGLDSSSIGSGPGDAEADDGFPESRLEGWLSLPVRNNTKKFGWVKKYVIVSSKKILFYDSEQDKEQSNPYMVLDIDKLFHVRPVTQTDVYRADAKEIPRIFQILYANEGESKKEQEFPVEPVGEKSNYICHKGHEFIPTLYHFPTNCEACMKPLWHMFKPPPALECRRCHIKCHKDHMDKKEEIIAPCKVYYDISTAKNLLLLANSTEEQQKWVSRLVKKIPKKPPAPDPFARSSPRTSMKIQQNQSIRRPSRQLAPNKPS
Chain of Mitogen-activated protein kinase 11 (Homo sapiens) (Q15759 whole entry): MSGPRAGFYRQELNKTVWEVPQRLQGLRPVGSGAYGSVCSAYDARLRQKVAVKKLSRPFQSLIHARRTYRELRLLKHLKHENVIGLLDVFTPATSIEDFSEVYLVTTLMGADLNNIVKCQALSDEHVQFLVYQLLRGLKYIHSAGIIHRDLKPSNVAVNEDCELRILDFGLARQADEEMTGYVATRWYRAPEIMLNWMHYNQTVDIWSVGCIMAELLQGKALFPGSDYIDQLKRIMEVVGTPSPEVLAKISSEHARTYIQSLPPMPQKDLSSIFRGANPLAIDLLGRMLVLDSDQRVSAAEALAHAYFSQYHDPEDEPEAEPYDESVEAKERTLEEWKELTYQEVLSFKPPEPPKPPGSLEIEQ
Chain of Dual specificity mitogen-activated protein kinase kinase 1 (Homo sapiens) (Q02750 whole entry): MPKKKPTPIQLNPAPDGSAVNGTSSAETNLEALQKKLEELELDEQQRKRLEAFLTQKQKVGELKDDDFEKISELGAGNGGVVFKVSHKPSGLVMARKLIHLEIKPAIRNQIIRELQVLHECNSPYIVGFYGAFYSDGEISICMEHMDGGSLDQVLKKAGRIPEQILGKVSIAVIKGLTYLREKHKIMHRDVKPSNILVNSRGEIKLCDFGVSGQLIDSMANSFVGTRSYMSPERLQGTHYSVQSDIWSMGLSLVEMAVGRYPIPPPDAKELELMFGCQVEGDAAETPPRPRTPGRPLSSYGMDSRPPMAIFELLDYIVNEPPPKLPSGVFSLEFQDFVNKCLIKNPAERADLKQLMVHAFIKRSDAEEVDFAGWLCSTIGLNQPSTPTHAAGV
Chain of Ribosomal protein S6 kinase beta-1 (P23443 whole entry, looked up): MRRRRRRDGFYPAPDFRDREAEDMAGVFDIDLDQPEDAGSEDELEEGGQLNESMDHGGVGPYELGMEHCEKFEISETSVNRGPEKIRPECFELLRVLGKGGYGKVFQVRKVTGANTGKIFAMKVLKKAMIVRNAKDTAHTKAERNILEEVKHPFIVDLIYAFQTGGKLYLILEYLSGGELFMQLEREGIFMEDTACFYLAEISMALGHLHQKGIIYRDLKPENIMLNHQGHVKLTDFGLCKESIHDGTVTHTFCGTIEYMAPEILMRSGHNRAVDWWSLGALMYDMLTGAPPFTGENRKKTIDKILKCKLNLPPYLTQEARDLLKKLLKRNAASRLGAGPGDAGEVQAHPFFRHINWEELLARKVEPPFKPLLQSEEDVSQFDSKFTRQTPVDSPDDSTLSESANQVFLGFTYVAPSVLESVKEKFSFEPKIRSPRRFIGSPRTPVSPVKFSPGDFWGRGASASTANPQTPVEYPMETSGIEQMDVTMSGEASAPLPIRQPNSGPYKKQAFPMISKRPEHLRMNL
Chain of Homeodomain-interacting protein kinase 3 (Homo sapiens) (Q9H422 whole entry, looked up): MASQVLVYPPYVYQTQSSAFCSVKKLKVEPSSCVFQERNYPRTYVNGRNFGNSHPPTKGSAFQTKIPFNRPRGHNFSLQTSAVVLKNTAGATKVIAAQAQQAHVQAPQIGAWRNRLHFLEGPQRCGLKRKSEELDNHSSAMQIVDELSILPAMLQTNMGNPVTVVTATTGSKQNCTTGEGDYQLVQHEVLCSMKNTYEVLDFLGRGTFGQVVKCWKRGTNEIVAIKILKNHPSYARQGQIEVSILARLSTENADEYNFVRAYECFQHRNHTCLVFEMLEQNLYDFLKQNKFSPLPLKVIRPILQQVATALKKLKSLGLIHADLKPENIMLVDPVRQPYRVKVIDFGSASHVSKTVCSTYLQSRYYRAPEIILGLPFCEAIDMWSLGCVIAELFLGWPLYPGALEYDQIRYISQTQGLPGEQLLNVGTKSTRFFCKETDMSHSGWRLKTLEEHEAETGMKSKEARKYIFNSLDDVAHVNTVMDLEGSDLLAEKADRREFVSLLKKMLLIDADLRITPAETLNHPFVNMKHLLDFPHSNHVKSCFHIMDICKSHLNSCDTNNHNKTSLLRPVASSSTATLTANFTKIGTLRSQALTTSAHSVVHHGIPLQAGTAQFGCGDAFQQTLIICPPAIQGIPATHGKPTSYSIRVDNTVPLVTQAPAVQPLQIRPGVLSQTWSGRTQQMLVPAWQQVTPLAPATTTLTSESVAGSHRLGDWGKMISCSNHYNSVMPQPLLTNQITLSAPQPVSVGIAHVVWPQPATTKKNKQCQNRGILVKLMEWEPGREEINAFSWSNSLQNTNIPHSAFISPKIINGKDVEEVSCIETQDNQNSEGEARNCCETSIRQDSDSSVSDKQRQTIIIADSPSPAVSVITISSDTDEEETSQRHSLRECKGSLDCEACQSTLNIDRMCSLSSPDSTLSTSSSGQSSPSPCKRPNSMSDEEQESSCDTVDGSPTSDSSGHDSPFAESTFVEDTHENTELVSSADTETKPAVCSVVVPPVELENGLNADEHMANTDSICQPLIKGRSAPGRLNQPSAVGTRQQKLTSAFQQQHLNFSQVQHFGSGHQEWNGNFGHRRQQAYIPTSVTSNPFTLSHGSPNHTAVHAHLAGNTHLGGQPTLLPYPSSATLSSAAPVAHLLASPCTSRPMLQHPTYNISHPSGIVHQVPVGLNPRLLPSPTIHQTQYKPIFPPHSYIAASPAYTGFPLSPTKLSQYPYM
Chain of Calcium/calmodulin-dependent protein kinase kinase 1 (Homo sapiens) (Q8N5S9 whole entry, looked up): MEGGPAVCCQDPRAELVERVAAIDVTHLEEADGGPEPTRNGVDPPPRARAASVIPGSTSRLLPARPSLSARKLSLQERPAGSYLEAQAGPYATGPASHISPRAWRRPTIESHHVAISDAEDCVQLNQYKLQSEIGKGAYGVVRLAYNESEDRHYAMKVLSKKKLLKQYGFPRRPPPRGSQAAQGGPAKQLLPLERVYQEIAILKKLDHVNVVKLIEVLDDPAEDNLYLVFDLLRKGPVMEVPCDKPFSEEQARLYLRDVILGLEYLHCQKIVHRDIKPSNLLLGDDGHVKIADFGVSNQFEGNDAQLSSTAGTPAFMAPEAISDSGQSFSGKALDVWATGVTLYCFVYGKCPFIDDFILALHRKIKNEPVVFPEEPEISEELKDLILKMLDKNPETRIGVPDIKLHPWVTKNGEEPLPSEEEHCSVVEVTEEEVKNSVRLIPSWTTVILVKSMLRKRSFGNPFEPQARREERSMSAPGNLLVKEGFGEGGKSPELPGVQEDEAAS

SMILES | Activity [1] [%] | Activity [3] [%] | Activity [4] [%] | Activity [6] [%] | Activity [7] [%] | Activity [8] [%] | Activity [9] [%] | Activity [10] [%] | Activity [11] [%] | Activity [12] [%] | Activity [13] [%] | Activity [16] [%] | Activity [17] [%] | Activity [18] [%] | Activity [20] [%] | Activity [14] [%] | Activity [15] [%] | Activity ([19]; filed as antagonist) [%] | other results
NCCNS(=O)(=O)c1ccc(Cl)c2ccncc12 | 100 | 86 | 55 | 86 | 84 |  |  |  |  |  |  |  |  |  |  |  |  |  | Activity ([2]; filed as antagonist): 29%; Activity [5]: 83%
COc1cc(OC)c(/C=C2/C(=O)Nc3ccccc32)c(OC)c1 | 93 | 95 | 75 | 67 | 70 |  |  |  |  |  |  |  |  |  |  |  |  |  | Activity [2]: 68%; Activity ([5]; filed as antagonist): 49%
O=C(NCCCNc1nc(Nc2cccc(NC(=O)N3CCCC3)c2)ncc1I)c1cccs1 |  |  |  |  |  | 95 | 50 | 100 | 90 | 94 | 97 | 94 | 93 | 96 | 114 |  |  |  | Activity ([14]; filed as antagonist): 40%; Activity ([15]; filed as antagonist): 27%; Activity [19]: 79%
Cc1n[nH]c2ccc(-c3cncc(OC[C@@H](N)Cc4c[nH]c5ccccc45)c3)cc12 |  |  |  |  |  | 90 | 84 | 88 |  | 114 | 107 |  | 96 | 76 | 99 | 61 | 100 | 17 | Activity ([11]; filed as antagonist): 48%; Activity ([16]; filed as antagonist): 10%
CN[C@@H]1C[C@H]2O[C@@](C)([C@@H]1OC)n1c3ccccc3c3c4c(c5c6ccccc6n2c5c31)C(=O)N[C@H]4O (stereo in doubt) |  |  |  |  |  | 116 | 75 | 96 | 86 | 105 | 83 | 90 | 92 |  | 80 | 92 | 71 | 10 | Activity ([18]; filed as antagonist): 2%
